Tests used:
[1] = system: ptosis observed one hour after an intravenous injection (2 mg/kg) of reserpine; test: Test B: antagonism of the ptosis caused by reserpine in mice; assay type: in vivo; details: Mus musculus, po, 1 h, p.o., reserpine 2 mg/kg intravenous, read-out: Test B ED 50
Description: Antagonism with respect to the ptosis observed one hour after an intravenous injection (2 mg/kg) of reserpine given to mice, following the protocol described by C.

[2] = system: generalized trembling caused by an interperitoneal injection (200 mg/kg) of dl-5-hydroxytryptophane; test: Test A: potentiation in mice of generalized trembling caused by dl-5-hydroxytryptophane; assay type: in vivo; details: Mus musculus, po, dl-5-hydroxytryptophane 200 mg/kg intraperitoneal, read-out: Test A ED 50
Description: Potentiation in mice of generalized trembling caused by an interperitoneal injection (200 mg/kg) of dl-5-hydroxytryptophane, following the protocol described by C. GOURET and G. RAYNAUD in J. Pharmacol. (Paris), (1974) 5, 231.

[3] = system: pontogeniculo-occipital points (P.G.O.) caused by an intravenous injection (0.5 mg/kg) of reserpine; test: Test C: reduction in the density of pontogeniculo-occipital points (P.G.O.) caused by reserpine in cats; assay type: in vivo; details: Felis catus, ip, reserpine 0.5 mg/kg intravenous, read-out: Test C ED 50
Description: Reduction in the density of pontogeniculo-occipital points (P.G.O.) caused by an intravenous injection (0.5 mg/kg) of reserpine given to cats, following the protocol described by A. COSTON and C. GOURET in J. Pharmacol. (Paris) (1976), 7, 409.

Acute toxicity in mice = details: mouse, in vivo, po

Compound	ED50 [1]	ED50 [2]	ED50 [3]	mortality (Acute toxicity in mice; 1000 mg/kg)	mortality (Acute toxicity in mice; mice, dose administered 1000 mg/kg/p.o.)	LD50 (Acute toxicity in mice)
CCCCCNc1ccc(N2CC(CO)OC2=O)cc1 (stereo not drawn) [770 328, 3-p-n pentylaminophenyl 5-hydroxymethyl 2-oxazolidinone]	35 mg/kg	25 mg/kg				
O=C1OC(CO)CN1c1ccc(OCc2ccc(F)c(Cl)c2)cc1 (stereo not drawn) [770 572]	3.12 mg/kg	6.3 mg/kg	8.5 mg/kg			
CC(=O)CSc1ccc(N2CC(CO)OC2=O)cc1 (stereo not drawn) [770 501, 3-(p-acetylmethylthiophenyl) 5-hydroxymethyl 2-oxazolidinone]	25 mg/kg	22 mg/kg				
Nc1cccc(COc2ccc(N3CC(CO)OC3=O)cc2)c1 (stereo not drawn) [771 240]	50 mg/kg	35 mg/kg				
O=C1OC(CO)CN1c1ccc(OCCC2CCCCC2)cc1 (stereo not drawn) [770 949]	16 mg/kg	10 mg/kg				
N#Cc1cccc(COc2ccc(N3CC(CO)OC3=O)cc2)c1 (stereo not drawn) [770 222]	1.2 mg/kg	2.8 mg/kg	5.2 mg/kg	0%		
O=C1OC(CO)CN1c1ccc(OCc2cc(Cl)cc([N+](=O)[O-])c2)cc1 (stereo not drawn) [771 199]	0.8 mg/kg	1.1 mg/kg				
CCCC(=O)c1ccc(N2CC(CO)OC2=O)cc1 (stereo not drawn) [770 423]	25 mg/kg	35 mg/kg	5 mg/kg			
O=C1OC(CO)CN1c1ccc(OCC2CCCC2)cc1 (stereo not drawn) [770 467]	1.2 mg/kg	2.8 mg/kg	3 mg/kg			
O=C1OC(CO)CN1c1ccc(OCC2SCCCS2)cc1 (stereo not drawn) [780 077]	44 mg/kg	25 mg/kg				
C=CCCCOc1ccc(N2CC(CO)OC2=O)cc1 (stereo not drawn) [770 196]	15 mg/kg	20 mg/kg	16 mg/kg			
O=C1OC(CO)CN1c1ccc(OCc2ccsc2)cc1 (stereo not drawn) [771 067]	12.5 mg/kg	7.5 mg/kg				
O=C1OC(CO)CN1c1ccc(OCc2ccccn2)cc1 (stereo not drawn) [770 298]	12.5 mg/kg	55 mg/kg				
O=C1OC(CO)CN1c1ccc(COc2cccc([N+](=O)[O-])c2)cc1 (stereo not drawn) [771 263, 3-para (metanitrophenoxymethyl) phenyl 5-hydroxymethyl 2-oxazolidinone]	3.1 mg/kg	4 mg/kg				
O=C1OC(CO)CN1c1ccc(OCc2ccc(Cl)c(Cl)c2)cc1 (stereo not drawn) [770 268]	8.5 mg/kg	7 mg/kg				
CC(=O)COc1ccc(N2CC(CO)OC2=O)cc1 (stereo not drawn) [760 652, 3-(p-acetylmethyloxy) 5-hydroxymethyl 2-oxazolidinone]					0%	

Compound	ED50 [1]	ED50 [2]	ED50 [3]	mortality (Acute toxicity in mice; 1000 mg/kg)	mortality (Acute toxicity in mice; mice, dose administered 1000 mg/kg/p.o.)	LD50 (Acute toxicity in mice)
O=C1OC(CO)CN1c1ccc(OCc2cccc(Br)c2)cc1 (stereo not drawn) [760 557]	3.3 mg/kg	7.3 mg/kg	110 mg/kg	0%		
CCCCCSc1ccc(N2CC(CO)OC2=O)cc1 (stereo not drawn) [770 180]	45 mg/kg	35 mg/kg	45 mg/kg			
O=C1OC(CO)CN1c1ccc(OCC2SCCS2)cc1 (stereo not drawn) [780 080, 3-para[(1,3-dithiolan-2-yl)-methoxy]phenyl 5-hydroxymethyl 2-oxazolidinone]	50 mg/kg	50 mg/kg				
O=C1OC(CO)CN1c1ccc(OCc2ccoc2)cc1 (stereo not drawn) [770 979]	35 mg/kg	14 mg/kg				
O=C1OC(CO)CN1c1ccc(OCCC2CCCC2)cc1 (stereo not drawn) [771 245]	2 mg/kg	1.5 mg/kg				> 2000 mg/kg
N#Cc1ccccc1COc1ccc(N2CC(CO)OC2=O)cc1 (stereo not drawn) [770 318]	16 mg/kg	25 mg/kg				
O=C1OC(CO)CN1c1ccc(OCc2ccc(Cl)cc2Cl)cc1 (stereo not drawn) [770 354]	30 mg/kg	25 mg/kg	30 mg/kg			
O=C1OC(CO)CN1c1ccc(COc2ccccc2)cc1 (stereo not drawn) [770 696]	20 mg/kg	15 mg/kg				
O=C1OC(CO)CN1c1ccc(OCc2cnccn2)cc1 (stereo not drawn) [770 845]	12.5 mg/kg	6.25 mg/kg				
CCC(=O)c1ccc(N2CC(CO)OC2=O)cc1 (stereo not drawn) [770 365]	25 mg/kg	29 mg/kg				
O=C1OC(CO)CN1c1ccc(OCC2CCCOC2)cc1 (stereo not drawn) [780 034]	6.2 mg/kg	4.4 mg/kg				
CN(C)c1cccc(N2CC(CO)OC2=O)c1 (stereo not drawn) [770 155]	22.5 mg/kg	50 mg/kg	35 mg/kg			
O=C1OC(CO)CN1c1ccc(OCc2ccc([N+](=O)[O-])c(Cl)c2)cc1 (stereo not drawn) [770 790]	25 mg/kg	50 mg/kg				
O=C1OC(CO)CN1c1ccc(OCc2ccncc2)cc1 (stereo not drawn) [770 299]	12.5 mg/kg	20 mg/kg				
O=C1OC(CO)CN1c1ccc(OCC2CCCCO2)cc1 (stereo not drawn) [770 900]	25 mg/kg	50 mg/kg				
CCC(=O)Nc1ccc(COc2ccc(N3CC(CO)OC3=O)cc2)cc1 (stereo not drawn) [780 443]	12.5 mg/kg	3.7 mg/kg				

— patent publication US4338451A, “5-Hydroxymethyl oxazolidinones” (Delalande S.A., priority 1977, dated 1982)
